PubChem BioAssay (NCI)
“And” between values parts separate entries of the source, which are not always exact repeats. Identical values can stand only once.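 Following 48 hours of exposure in 96-well plates, responses at five concentrations were used to interpolate endpoints linearly. GI50 = concentration required for 50% inhibition of growth. At the TGI there is no net growth.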

Assays:
Test in all cases: growth of human tumour cells (NCI), 48 h
[1] = tested on: DLD-1 colon
[2] = tested on: UACC-257 melanoma
[3] = tested on: RPMI-8226 leukemia
[4] = tested on: SF-268 CNS
[5] = tested on: DMS 273 small cell lung
[6] = tested on: NCI-H460 lung
[7] = tested on: SF-295 CNS
[8] = tested on: MALME-3M melanoma
[9] = tested on: HCC-2998 colon
[10] = tested on: HOP-62 NSCLC
[11] = tested on: SNB-78 CNS
[12] = tested on: SW-620 colon
[13] = tested on: 786-0 renal
[14] = tested on: SK-MEL-28 melanoma
[15] = tested on: NCI-H522 lung
[16] = tested on: M14 melanoma
[17] = tested on: LXFL 529 NSCLC
[18] = tested on: OVCAR-3 ovarian
[19] = tested on: MCF7 breast
[20] = tested on: OVCAR-8 ovarian
[21] = tested on: CAKI-1 renal
[22] = tested on: SF-539 CNS
[23] = tested on: RXF-631 renal
[24] = tested on: CCRF-CEM leukemia
[25] = tested on: SR leukemia
[26] = tested on: SNB-75 CNS
[27] = tested on: K-562 leukemia
[28] = tested on: SN12C renal
[29] = tested on: SNB-19 CNS
[30] = tested on: M19-MEL melanoma
[31] = tested on: MDA-MB-231 breast
[32] = tested on: KM12 colon
[33] = tested on: SK-OV-3 ovarian
[34] = tested on: SK-MEL-2 melanoma
[35] = tested on: UACC-62 melanoma
[36] = tested on: RXF 393 renal
[37] = tested on: COLO 205 colon
[38] = tested on: U251 CNS
[39] = tested on: LOX IMVI melanoma
[40] = tested on: OVCAR-5 ovarian
[41] = tested on: IGROV1 ovarian
[42] = tested on: BT-549 breast
[43] = tested on: DMS 114 small cell lung
[44] = tested on: EKVX NSCLC
[45] = tested on: TK-10 renal
[46] = tested on: A498 renal
[47] = tested on: HS 578T breast
[48] = tested on: MOLT-4 leukemia
[49] = tested on: HL-60(TB) leukemia
[50] = tested on: NCI-H226 lung
[51] = tested on: DU-145 prostate
[52] = tested on: HT29 colon
[53] = tested on: NCI/ADR-RES ovarian
[54] = tested on: KM20L2 colon
[55] = tested on: MDA-MB-435
[56] = tested on: HOP-92 NSCLC
[57] = tested on: SK-MEL-5 melanoma
[58] = tested on: T-47D breast
[59] = tested on: UO-31 renal
[60] = tested on: ACHN renal
[61] = tested on: OVCAR-4 ovarian
[62] = tested on: A549 NSCLC
[63] = tested on: HCT-116 colon
[64] = tested on: HCT-15 colon
[65] = tested on: NCI-H23 lung
[66] = tested on: HOP-18 NSCLC

## CCCCCCCCCC[C@@H](O)[C@@H]1CC[C@@H]([C@@H]2CC[C@@H]([C@@H](O)CCCCCCCCCC[C@H](O)CC3=CC(C)OC3=O)O2)O1 (some centres undefined)
[1]
  TGI: > 100 µM
[2]
  GI50: < 0.0462 µM
  TGI: 7.89 µM
[3]
  GI50: 7.14 µM
[4]
  GI50: 3.29 µM
[5]
  TGI: 13.5 µM
[6]
  GI50: 3.4 µM
  TGI: > 100 µM
[7]
  GI50: 0.686 µM
  TGI: > 100 µM
[8]
  GI50: 2.13 µM
  TGI: 3.86 µM and 7.42 µM
[9]
  TGI: 9.13 µM
[10]
  GI50: 4.27 µM
  TGI: 15.4 µM
[11]
  TGI: 56.2 µM
[12]
  GI50: 4.82 µM
  TGI: > 100 µM
[13]
  GI50: 2.49 µM
  TGI: 7.95 µM and 12.1 µM
[14]
  GI50: 5.25 µM
  TGI: > 28.8 µM
[15]
  TGI: 13.8 µM
[16]
  GI50: 5.47 µM
  TGI: 5.16 µM and 29.6 µM
[17]
  TGI: 25.6 µM
[18]
  GI50: 1.47 µM
  TGI: 3.34 µM and 22.3 µM
[19]
  GI50: 3.52 µM
  TGI: > 100 µM
[20]
  TGI: 8.06 µM and > 54.7 µM
[21]
  GI50: 3.62 µM
  TGI: > 65.3 µM
[22]
  TGI: 9.39 µM and 13.3 µM
[23]
  TGI: 19.4 µM
[24]
  GI50: 2.78 µM
[25]
  TGI: 6.32 µM
[26]
  GI50: 6.08 µM
  TGI: 8.58 µM and 18 µM
[27]
  GI50: 2.94 µM
  TGI: > 100 µM
[28]
  GI50: 16 µM
  TGI: > 100 µM
[29]
  TGI: 24.6 µM
[30]
  TGI: > 100 µM
[31]
  GI50: 8.01 µM
  TGI: 24.6 µM
[32]
  GI50: > 100 µM
[33]
  TGI: 21.9 µM
[34]
  GI50: 1.23 µM
  TGI: 4.68 µM and 31.2 µM
[35]
  GI50: 7.27 µM
[36]
  TGI: 9.8 µM
[37]
  TGI: > 27.5 µM
[38]
  TGI: > 46 µM
[39]
  GI50: 4.26 µM
[40]
  GI50: > 75.4 µM
  TGI: > 100 µM
[41]
  GI50: 4.4 µM
  TGI: 7.47 µM and 36.8 µM
[42]
  TGI: 51.6 µM
[43]
  TGI: 11.2 µM
[44]
  GI50: 1.98 µM
  TGI: 8.5 µM and > 80 µM
[45]
  GI50: 5.18 µM
  TGI: 9.07 µM and 26 µM
[46]
  GI50: 8.48 µM
  TGI: 8.64 µM and 34.9 µM
[47]
  GI50: 14 µM
[48]
  GI50: 2.93 µM
[49]
  GI50: 1.54 µM
  TGI: 2.96 µM and 5.84 µM
[50]
  TGI: 3.49 µM
[51]
  GI50: 23.5 µM
  TGI: > 100 µM
[52]
  GI50: 26.4 µM
[53]
  TGI: 5.34 µM and 35.8 µM
[54]
  TGI: > 100 µM
[55]
  GI50: 4.04 µM
[56]
  GI50: 10.3 µM
  TGI: 8.09 µM and 33.8 µM
[57]
  TGI: 3.11 µM and 2.6 µM
[58]
  TGI: 40.4 µM
[59]
  GI50: 2.42 µM
  TGI: 5.24 µM and > 20 µM
[60]
  GI50: 2.26 µM
  TGI: 5.75 µM and 20.7 µM
[61]
  TGI: > 51.4 µM
[62]
  GI50: 3.05 µM
  TGI: 38.5 µM
[63]
  TGI: 28.1 µM
[64]
  GI50: 4.23 µM
  TGI: > 100 µM

## Cc1cc(N(CCC#N)CCC#N)ccc1N=Nc1cc(Cl)ccc1Cl
[1]
  TGI: 26.1 µM
[2]
  TGI: 23.8 µM
[3]
  TGI: 34.7 µM
[4]
  TGI: 29.9 µM
[5]
  TGI: 29.6 µM
[7]
  TGI: 34.9 µM
[8]
  TGI: 17.9 µM
[65]
  TGI: 28.1 µM
[9]
  TGI: 32.9 µM
[10]
  TGI: 35.3 µM
[11]
  TGI: 22 µM
[12]
  TGI: 6.5 µM
[13]
  TGI: 28.9 µM
[14]
  TGI: 21.1 µM
[15]
  TGI: 3.41 µM
[16]
  TGI: 11.4 µM
[17]
  TGI: 3.35 µM
[18]
  TGI: 18.2 µM
[21]
  TGI: 9.68 µM
[22]
  TGI: 19.4 µM
[24]
  TGI: 19.2 µM
[26]
  TGI: 28.3 µM
[27]
  TGI: 11.4 µM
[28]
  TGI: 27.1 µM
[29]
  TGI: 35.9 µM
[30]
  TGI: 26.6 µM
[32]
  TGI: 30 µM
[33]
  TGI: 29.9 µM
[34]
  TGI: 33.8 µM
[35]
  TGI: 21.7 µM
[36]
  TGI: 23 µM
[37]
  TGI: 4.97 µM
[38]
  TGI: 33.5 µM
[39]
  TGI: 14.2 µM
[40]
  TGI: 27.4 µM
[41]
  TGI: 28.6 µM
[43]
  TGI: 22.9 µM
[44]
  TGI: 26.5 µM
[45]
  TGI: 23.8 µM
[46]
  TGI: 34.7 µM
[48]
  TGI: 34.9 µM
[49]
  TGI: 16 µM
[50]
  TGI: 25.2 µM
[52]
  TGI: 13.1 µM
[57]
  TGI: 30.3 µM
[59]
  TGI: 30.9 µM
[66]
  TGI: 22.1 µM
[60]
  TGI: 25.4 µM
[61]
  TGI: 10.3 µM
[62]
  TGI: 38.5 µM
[64]
  TGI: 6.58 µM
